# pEC50, pIC50: −log10 of the molar value.
# Assays:
# [1] = tested on: PC3MM cells; experiment: Cell Proliferation Assay (Cell Titer Glo), PC3MM; assay type: cell-based; settings: 72 h; PC3MM cells, 3 days incubation; read-out: CP EC50 PC3MM
# Method in brief: (§1)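 Cells seeded at 1000/well, allowed to adhere 3-5 h, then exposed to DMSO-dissolved compounds for 3 days at 37° C., 5% CO2. Medium replaced before Cell Titer Glo addition; luminescence read after 10 min.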
# [2] = tested on: A2780 cells; experiment: Cell Proliferation Assay (Cell Titer Glo), A2780; assay type: cell-based; settings: Homo sapiens, 72 h; A2780 cells, 3 days incubation; read-out: CPEC50 A2780
# Method in brief: as §1
# [3] = tested on: pAkt308 (phosphorylation of Akt at T308) in PC-3 cells; experiment: pAkt T308 ECL Assay in PC-3 cells; assay type: cell-based; settings: Homo sapiens, 6 h, six hours with compound, read-out: PAKT308 PC3 IC50
# Method in brief: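 PC-3 cells seeded at 15,000/well overnight were treated with serially diluted compounds for 6 h at 37° C, then lysed on ice. Lysates were captured on MSD plates for pAkt T308 and total Akt, detected with 10 nM SULFO-TAG antibodies by electrochemiluminescence.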
# [4] = biological target: T1, PDK1 kinase (Homo sapiens, UniProt O15530); experiment: PDK1 Kinase Alpha Screen Assay; assay type: biochemical; settings: read-out: PDK1 IC50
# T1 sequence (O15530 1-556): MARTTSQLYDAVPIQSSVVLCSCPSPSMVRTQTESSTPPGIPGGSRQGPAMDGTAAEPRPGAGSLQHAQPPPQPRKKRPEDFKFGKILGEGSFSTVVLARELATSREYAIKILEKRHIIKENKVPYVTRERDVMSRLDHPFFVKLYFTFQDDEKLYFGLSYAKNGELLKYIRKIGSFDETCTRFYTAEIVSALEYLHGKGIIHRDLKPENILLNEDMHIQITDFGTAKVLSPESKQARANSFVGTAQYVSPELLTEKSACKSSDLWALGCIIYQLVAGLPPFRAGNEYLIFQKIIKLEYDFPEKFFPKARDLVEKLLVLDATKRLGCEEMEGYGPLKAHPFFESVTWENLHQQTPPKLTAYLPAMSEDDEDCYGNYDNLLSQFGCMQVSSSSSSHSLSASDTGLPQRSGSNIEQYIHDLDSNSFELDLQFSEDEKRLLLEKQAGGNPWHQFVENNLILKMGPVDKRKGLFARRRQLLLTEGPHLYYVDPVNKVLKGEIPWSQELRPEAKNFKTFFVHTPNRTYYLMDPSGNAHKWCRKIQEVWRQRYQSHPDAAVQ
# Method in brief: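 Test compounds were incubated with PDK1 kinase, 10 uM ATP and 50 nM biotinylated peptide substrate for 3-18 hours at pH 7.5 with 2.5% DMSO. Peptide phosphorylation was then detected by AlphaScreen proximity luminescence using a phospho-(Ser/Thr) PKA substrate antibody.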
# [5] = tested on: PC-3 cells; experiment: Cell Proliferation Assay (Cell Titer Glo), PC-3 cell line; assay type: cell-based; settings: Homo sapiens, PC-3, 72 h, PC-3 cells, 3 days incubation; read-out: CP EC50 PC3
# Method in brief: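 PC-3 cells, 1000 cells/well, left to adhere 3-5 h, then exposed for 3 days at 37° C to compounds as 1:3 serial dilutions from 500× DMSO stocks diluted in growth medium. Medium then replaced with fresh medium and viability read by Cell Titer Glo luminescence.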
pEC50 [1],pEC50 [2],pIC50 [3],pIC50 [4],pEC50 [5],Structure (SMILES)
> 5.30,> 5.30,> 5.30,> 5.30,> 5.30,"CN1CCC(Oc2ccc3cnc(Nc4ccc(S(N)(=O)=O)cc4)nc3c2)CC1 [Compound 52, 4-[7-(1-Methyl-piperidin 4-yloxy)-quinazolin-2-ylamino]-benzenesulfonamide]"
–,> 5.30,> 5.30,> 5.30,> 5.30,"CC(C)N1CCC(c2c(O)ccc3cnc(Nc4ccc(S(N)(=O)=O)cc4)nc23)CC1 [Compound 134, 4-[7-Hydroxy-8-(1-isopropyl-piperidin-4-yl)-quinazolin-2-ylamino]-benzenesulfonamide]"
–,> 5.30,> 5.30,> 5.30,> 5.30,"Cn1cc(-c2ccc3cnc(Nc4ccc(S(N)(=O)=O)cc4)nc3c2)cn1 [Compound 136, 4-[7-(1-Methyl-1H-pyrazol-4-yl)-quinazolin-2-ylamino]-benzenesulfonamide]"
–,> 5.30,> 5.30,> 5.30,> 5.30,"NS(=O)(=O)c1ccc(Nc2ncc3ccc(-c4cccnc4F)cc3n2)cc1 [Compound 137, 4-[7-(2-Fluoro-pyridin-3-yl)-quinazolin-2-ylamino]-benzenesulfonamide]"

# — patent publication US7932262B2 (Novartis AG, priority 2006, dated 2011)
